According to US20030129629A1, “Methods and compositions for the identification, assessment, prevention, and therapy of human cancers” (Millennium Pharmaceuticals, Inc., priority 2000, published 2003):
Counter-ions that a name gives are not always drawn.

Test system: 60 cancer cell lines (NCI 60 cancer cell line series)
Test: NCI-DTP in vitro cancer screen, sulforhodamine B (SRB) growth inhibition, 48 hour exposure
Assay type: cell-based, human
Procedure: Cancer Cell Line Preparation. Sixty cancer cell lines were obtained from the National Cancer Institute Developmental Therapeutics Program (NCI-DTP). Procedures for growing cells and testing compounds have been described previously (Scudiero et al., Cancer Res. 1988, 48:4827-4833; Stinson et al., Anticancer Res.; Myers et al., Electrophoresis 1997, 18:647-653). Cells are plated on day 0 at a density individualized for each cell line so that they will generally be sub-confluent at the end of the assay period. On day 1, a compound is added in the format for a duplicate-well, 5-dose, ten-fold interval dose response study.
No-drug, no-cell and no-growth controls are included. On day 3 the cells are processed for staining with sulforhodamine B (SRB), which reflects the amount of cell mass present at the end of a 48 hour exposure to the test agent. From dose response curves based on the SRB data, various parameters can be determined. […] More precisely, the quantity used in the calculation to be described is the potency measure −log{GI50}.
Activity database (A). […] This subset of compounds was selected from the larger 23,000 compound database available from the DTP. The compounds were selected on the basis of their known mechanism of action and chemical structure. The average potency −log{GI50} was extracted from the comma-delimited text files available through the Web at http://www.nci.nih.gov/intra/lmp/jnwbio.html. Subsequently, these −log{GI50} values were inspected manually and classified as indicating either Low, Medium or High sensitivity to each compound.

CC[C@]1(O)C[C@@H]2CN(CCc3c([nH]c4ccccc34)[C@@](C(=O)OC)(c3cc4c(cc3OC)N(C)[C@H]3[C@@](O)(C(=O)OC)[C@H](OC(C)=O)[C@]5(CC)C=CCN6CC[C@]43[C@@H]65)C2)C1 [Vinblastine sulfate]
classification of cell line as Low(1), Medium(2), High(3) sensitivity to compound (Breast HS-578T CL5006): 3
classification of cell line as Low(1), Medium(2), High(3) sensitivity to compound (Breast MCF7/ADRr CL5002): 1
classification of cell line as Low(1), Medium(2), High(3) sensitivity to compound (Breast MDA-MB-231 CL5005): 2
classification of cell line as Low(1), Medium(2), High(3) sensitivity to compound (Breast MDA-MB-435 CL5011): 3
classification of cell line as Low(1), Medium(2), High(3) sensitivity to compound (Breast MDA-N CL5012): 3
classification of cell line as Low(1), Medium(2), High(3) sensitivity to compound (CNS SF-268 CL12014): 2
classification of cell line as Low(1), Medium(2), High(3) sensitivity to compound (CNS SF-295 CL12015): 2
classification of cell line as Low(1), Medium(2), High(3) sensitivity to compound (CNS SF-539 CL12016): 2
classification of cell line as Low(1), Medium(2), High(3) sensitivity to compound (CNS SNB-19 CL12002): 2
classification of cell line as Low(1), Medium(2), High(3) sensitivity to compound (CNS U251(I) CL12009): 2
classification of cell line as Low(1), Medium(2), High(3) sensitivity to compound (Colon HCC-2998 CL4002): 2
classification of cell line as Low(1), Medium(2), High(3) sensitivity to compound (Colon HCT-15 CL4015): 1
classification of cell line as Low(1), Medium(2), High(3) sensitivity to compound (Colon KM12 CL4017): 2
classification of cell line as Low(1), Medium(2), High(3) sensitivity to compound (Colon SW-620 CL4009): 2
classification of cell line as Low(1), Medium(2), High(3) sensitivity to compound (Leukemia CCRF-CEM(I) CL7003): 2
classification of cell line as Low(1), Medium(2), High(3) sensitivity to compound (Leukemia HL-60(I) CL7008): 3
classification of cell line as Low(1), Medium(2), High(3) sensitivity to compound (Leukemia MOLT-4 CL7006): 2
classification of cell line as Low(1), Medium(2), High(3) sensitivity to compound (Melanoma M14 CL10014): 2
classification of cell line as Low(1), Medium(2), High(3) sensitivity to compound (Melanoma MALME-3M CL10002): 2
classification of cell line as Low(1), Medium(2), High(3) sensitivity to compound (Melanoma SK-MEL-2 CL10005): 2
classification of cell line as Low(1), Medium(2), High(3) sensitivity to compound (Melanoma SK-MEL-5 CL10007): 3
classification of cell line as Low(1), Medium(2), High(3) sensitivity to compound (Melanoma SK-MEL-28 CL10008): 2
classification of cell line as Low(1), Medium(2), High(3) sensitivity to compound (Melanoma UACC-62 CL10020): 3
classification of cell line as Low(1), Medium(2), High(3) sensitivity to compound (NSCLC A549/ATCC CL1004): 2
classification of cell line as Low(1), Medium(2), High(3) sensitivity to compound (NSCLC EKVX CL1008): 1
classification of cell line as Low(1), Medium(2), High(3) sensitivity to compound (NSCLC HOP-62 CL1026): 2
classification of cell line as Low(1), Medium(2), High(3) sensitivity to compound (NSCLC HOP-92 CL1029): 2
sensitivity classification Low(1)/Medium(2)/High(3) (NSCLC NCI-H23(I) CL1001): 2
classification of cell line as Low(1), Medium(2), High(3) sensitivity to compound (NSCLC NCI-H226 CL1013): 2
sensitivity classification Low(1)/Medium(2)/High(3) (NSCLC NCI-H332M CL1017): 2
sensitivity classification Low(1)/Medium(2)/High(3) (NSCLC NCI-H460 CL1021): 2
sensitivity classification Low(1)/Medium(2)/High(3) (NSCLC NCI-H522 CL1003): 3
sensitivity classification Low(1)/Medium(2)/High(3) (Ovarian IGROV1 CL6010): 2
sensitivity classification Low(1)/Medium(2)/High(3) (Ovarian OVCAR-3 CL6001): 3
sensitivity classification Low(1)/Medium(2)/High(3) (Ovarian OVCAR-8 CL6005): 2
sensitivity classification Low(1)/Medium(2)/High(3) (Ovarian SK-OV-3 CL6011): 2
sensitivity classification Low(1)/Medium(2)/High(3) (Renal 786-0 CL9018): 2
sensitivity classification Low(1)/Medium(2)/High(3) (Renal CAKI-1 CL9015): 2
sensitivity classification Low(1)/Medium(2)/High(3) (Renal RXF-393 CL9016): 2
sensitivity classification Low(1)/Medium(2)/High(3) (Renal SN12C CL9008): 2
sensitivity classification Low(1)/Medium(2)/High(3) (Renal TK10 CL9024): 1
sensitivity classification Low(1)/Medium(2)/High(3) (Renal UO-31 CL9004): 1

CC[C@]1(O)C[C@H]2CN(CCc3c([nH]c4ccccc34)[C@@](C(=O)OC)(c3cc4c(cc3OC)N(C=O)[C@H]3[C@@](O)(C(=O)OC)[C@H](OC(C)=O)[C@]5(CC)C=CCN6CC[C@]43[C@@H]65)C2)C1 [Vincristine sulfate]
classification of cell line as Low(1), Medium(2), High(3) sensitivity to compound (Breast BT-549 CL5013): 1
classification of cell line as Low(1), Medium(2), High(3) sensitivity to compound (Breast HS-578T CL5006): 2
classification of cell line as Low(1), Medium(2), High(3) sensitivity to compound (Breast MCF7(I) CL5001): 2
classification of cell line as Low(1), Medium(2), High(3) sensitivity to compound (Breast MCF7/ADRr CL5002): 2
classification of cell line as Low(1), Medium(2), High(3) sensitivity to compound (Breast MDA-MB-231 CL5005): 2
classification of cell line as Low(1), Medium(2), High(3) sensitivity to compound (Breast MDA-MB-435 CL5011): 2
classification of cell line as Low(1), Medium(2), High(3) sensitivity to compound (Breast MDA-N CL5012): 2
classification of cell line as Low(1), Medium(2), High(3) sensitivity to compound (Breast T-47D CL5014): 1
classification of cell line as Low(1), Medium(2), High(3) sensitivity to compound (CNS SF-268 CL12014): 2
classification of cell line as Low(1), Medium(2), High(3) sensitivity to compound (CNS SF-295 CL12015): 3
classification of cell line as Low(1), Medium(2), High(3) sensitivity to compound (CNS SF-539 CL12016): 3
classification of cell line as Low(1), Medium(2), High(3) sensitivity to compound (CNS SNB-19 CL12002): 2
classification of cell line as Low(1), Medium(2), High(3) sensitivity to compound (CNS SNB-75(I) CL12005): 2
classification of cell line as Low(1), Medium(2), High(3) sensitivity to compound (CNS U251(I) CL12009): 2
classification of cell line as Low(1), Medium(2), High(3) sensitivity to compound (Colon COLO-250 CL4010): 2
classification of cell line as Low(1), Medium(2), High(3) sensitivity to compound (Colon HCC-2998 CL4002): 2
classification of cell line as Low(1), Medium(2), High(3) sensitivity to compound (Colon HCT-15 CL4015): 2
classification of cell line as Low(1), Medium(2), High(3) sensitivity to compound (Colon HCT-116 CL4003): 2
classification of cell line as Low(1), Medium(2), High(3) sensitivity to compound (Colon HT29(I) CL4001): 3
classification of cell line as Low(1), Medium(2), High(3) sensitivity to compound (Colon KM12 CL4017): 3
classification of cell line as Low(1), Medium(2), High(3) sensitivity to compound (Colon SW-620 CL4009): 3
classification of cell line as Low(1), Medium(2), High(3) sensitivity to compound (Leukemia CCRF-CEM(I) CL7003): 3
classification of cell line as Low(1), Medium(2), High(3) sensitivity to compound (Leukemia HL-60(I) CL7008): 3
classification of cell line as Low(1), Medium(2), High(3) sensitivity to compound (Leukemia K562(I) CL7005): 3
classification of cell line as Low(1), Medium(2), High(3) sensitivity to compound (Leukemia MOLT-4 CL7006): 3
classification of cell line as Low(1), Medium(2), High(3) sensitivity to compound (Leukemia RPMI-8226(I) CL7010): 3
classification of cell line as Low(1), Medium(2), High(3) sensitivity to compound (Leukemia SR CL7019): 3
classification of cell line as Low(1), Medium(2), High(3) sensitivity to compound (Melanoma LOX IMVI CL10001): 3
classification of cell line as Low(1), Medium(2), High(3) sensitivity to compound (Melanoma M14 CL10014): 2
classification of cell line as Low(1), Medium(2), High(3) sensitivity to compound (Melanoma MALME-3M CL10002): 2
classification of cell line as Low(1), Medium(2), High(3) sensitivity to compound (Melanoma SK-MEL-2 CL10005): 2
classification of cell line as Low(1), Medium(2), High(3) sensitivity to compound (Melanoma SK-MEL-5 CL10007): 3
classification of cell line as Low(1), Medium(2), High(3) sensitivity to compound (Melanoma SK-MEL-28 CL10008): 1
classification of cell line as Low(1), Medium(2), High(3) sensitivity to compound (Melanoma UACC-62 CL10020): 2
classification of cell line as Low(1), Medium(2), High(3) sensitivity to compound (Melanoma UACC-257 CL10021): 2
classification of cell line as Low(1), Medium(2), High(3) sensitivity to compound (NSCLC A549/ATCC CL1004): 2
classification of cell line as Low(1), Medium(2), High(3) sensitivity to compound (NSCLC EKVX CL1008): 1
classification of cell line as Low(1), Medium(2), High(3) sensitivity to compound (NSCLC HOP-62 CL1026): 2
classification of cell line as Low(1), Medium(2), High(3) sensitivity to compound (NSCLC HOP-92 CL1029): 2
sensitivity classification Low(1)/Medium(2)/High(3) (NSCLC NCI-H23(I) CL1001): 3
classification of cell line as Low(1), Medium(2), High(3) sensitivity to compound (NSCLC NCI-H226 CL1013): 2
sensitivity classification Low(1)/Medium(2)/High(3) (NSCLC NCI-H332M CL1017): 2
sensitivity classification Low(1)/Medium(2)/High(3) (NSCLC NCI-H460 CL1021): 3
sensitivity classification Low(1)/Medium(2)/High(3) (NSCLC NCI-H522 CL1003): 3
sensitivity classification Low(1)/Medium(2)/High(3) (Ovarian IGROV1 CL6010): 3
sensitivity classification Low(1)/Medium(2)/High(3) (Ovarian OVCAR-3 CL6001): 3
sensitivity classification Low(1)/Medium(2)/High(3) (Ovarian OVCAR-4 CL6002): 2
sensitivity classification Low(1)/Medium(2)/High(3) (Ovarian OVCAR-5 CL6003): 1
sensitivity classification Low(1)/Medium(2)/High(3) (Ovarian OVCAR-8 CL6005): 3
sensitivity classification Low(1)/Medium(2)/High(3) (Ovarian SK-OV-3 CL6011): 2
sensitivity classification Low(1)/Medium(2)/High(3) (Prostate DU-145 CL11003): 2
sensitivity classification Low(1)/Medium(2)/High(3) (Prostate PC-3(I) CL11001): 2
sensitivity classification Low(1)/Medium(2)/High(3) (Renal 786-0 CL9018): 2
sensitivity classification Low(1)/Medium(2)/High(3) (Renal A498 CL9013): 3
sensitivity classification Low(1)/Medium(2)/High(3) (Renal ACHN CL9023): 2
sensitivity classification Low(1)/Medium(2)/High(3) (Renal CAKI-1 CL9015): 2
sensitivity classification Low(1)/Medium(2)/High(3) (Renal RXF-393 CL9016): 2
sensitivity classification Low(1)/Medium(2)/High(3) (Renal SN12C CL9008): 2
sensitivity classification Low(1)/Medium(2)/High(3) (Renal TK10 CL9024): 1
sensitivity classification Low(1)/Medium(2)/High(3) (Renal UO-31 CL9004): 1
